Here are results for three compounds from patent US6770649B2, “1-[1-(hetero)aryl-1-perhydroxyalkylmethyl]-piperazine compounds, process for their preparation and pharmaceutical compositions containing them” (Solvay Pharmaceuticals GmbH, priority 2001, dated 2004).

SMILES strings stand for the structures.

Assay [1] addresses T1, NK-2 receptors (Cavia porcellus, UniProt Q64077).
T1 construct: the NK-2 receptors present in the gall-bladder preparations; from tissue; host or cells: Pirbright-White guinea pig: isolated gall-bladder (A2); anaesthetised whole animal (A3)
T1 sequence (Q64077 1-402): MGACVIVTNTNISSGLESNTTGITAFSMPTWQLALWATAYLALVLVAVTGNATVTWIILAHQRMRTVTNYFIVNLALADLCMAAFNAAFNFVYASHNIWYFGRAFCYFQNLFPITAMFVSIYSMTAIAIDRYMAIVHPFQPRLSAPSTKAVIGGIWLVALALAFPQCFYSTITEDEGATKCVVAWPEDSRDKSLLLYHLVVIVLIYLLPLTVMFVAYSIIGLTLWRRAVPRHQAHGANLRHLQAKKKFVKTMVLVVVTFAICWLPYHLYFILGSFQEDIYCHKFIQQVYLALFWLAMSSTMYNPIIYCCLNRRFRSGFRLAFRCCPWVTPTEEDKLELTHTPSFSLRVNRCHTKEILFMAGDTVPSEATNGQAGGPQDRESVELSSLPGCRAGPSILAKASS
Put plainly: Functional NK-2 antagonism on isolated guinea pig gall-bladder preparations (NKA-induced contraction). Conditions: inhibition of contraction caused by NKA 0.1 μmol/l; two hours' incubation; Pirbright-White guinea pig gall-bladder. Type of assay: cell-based. As to the method:
2. Determination of the Functional Antagonism of the Test Substances on Isolated Guinea Pig Tissue in vitro
The NK-2 receptor-antagonising action of the test substances was determined on isolated gall-bladder preparations from Pirbright-White guinea pigs, held in an oxygen-saturated nutrient solution. To this end, the preparations were fastened on one hand in the nutrient solution to organ holders and on the other hand on a force meter by a thread.
In this test the NK-2 receptors present in the gall-bladder preparations were stimulated with the natural NK-2 receptor agonist neurokinin A (=NKA; 0.1 μmol/l) and the contractions of the preparations caused thereby were measured as contractility in mN (=preliminary value) measured. Then NKA was rinsed out of the preparations with NKA-free solution and the test substances were added in a concentration of 10^−7 mol/l. After two hours' incubation of the preparations with the test substances, the contractions of the preparations then still caused by renewed NKA addition were again measured and the results were given as percentages, relative to the contractions initially measured, caused solely by NKA addition. The concentration of the test substances was increased iteratively in the subsequent experiments as a function of the result in logarithmic whole or half steps, until at least one concentration above or below 50% inhibition of contraction was determined (up to at most 10^−5 mol/l). For each concentration, the average value of inhibition of contraction was calculated from 2 to 4 preparations. In each case, the concentration of half-maximum inhibition (IC50) per test substance was calculated as characteristic variable. In each case the logarithmised value of the IC50 per test substance is given as pIC50 in [mol/l].

For assay [2], the target named is T2, human NK-2 receptor (Homo sapiens, UniProt P21452).
T2 construct: expressed in transfected cells; host or cells: CHO cells (membrane preparation)
T2 sequence (P21452 1-398): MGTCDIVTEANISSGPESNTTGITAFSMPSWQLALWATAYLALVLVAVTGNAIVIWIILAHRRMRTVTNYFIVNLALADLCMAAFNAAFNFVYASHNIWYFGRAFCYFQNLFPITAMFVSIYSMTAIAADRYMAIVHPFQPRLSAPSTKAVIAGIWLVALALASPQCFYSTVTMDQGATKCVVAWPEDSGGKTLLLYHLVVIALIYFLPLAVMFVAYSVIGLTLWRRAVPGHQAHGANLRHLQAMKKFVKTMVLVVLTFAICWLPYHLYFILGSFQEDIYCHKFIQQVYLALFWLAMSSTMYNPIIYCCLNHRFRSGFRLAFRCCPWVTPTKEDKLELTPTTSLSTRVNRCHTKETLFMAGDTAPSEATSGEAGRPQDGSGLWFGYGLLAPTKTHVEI
The assay is described as follows: Binding power of the test substances to NK-2 receptors in vitro ([3H]-SR 48968 displacement, CHO cell membranes). Conditions: displacement of [3H]-SR 48968, 90 min incubation, average of at least three measurements, 10^-6 to 10^-10 mol/l, read-out: pKi, affinity to human NK-2 receptors (converted). As to the method: 1. Determination of the Binding Power of the Test Substances to NK-2 Receptors in vitro
The affinity of the test substances to human NK-2 receptors was measured in vitro. The ability of the test substances to displace the selective NK-2 receptor antagonist SR 48968 (=saredutant) used as reference ligand from its corresponding bond was determined.
The receptor binding studies were carried out with radioactively marked [^3H]-SR 48968 (from Amersham) as ligand. For the binding test, different samples of a membrane preparation of CHO cells (=[…]), which express the human NK-2 receptor (for preparation, see N. P. Gerard et al., Journal of Biological Chemistry 265/33 (1990) 20455-20462), were incubated for 90 minutes (=min.) with a solution of the marked ligand, with the incubation mixtures containing no test substance or additions of different concentrations of test substance. Then in each case the membrane-bound ligands in the samples were separated from free ligands by filtration. The fraction remaining in the filter was washed several times with buffer solution, before its radioactivity was measured using a liquid scintillation counter. That concentration which effects half-maximum displacement of the bound reference ligand was determined as IC50 of the respective test substance. The inhibition constant (Ki value) of the test substance was calculated from the respective IC50 value, and was stated as the negative logarithmised value thereof (pKi).
For the compounds of Examples 1 to 39, the affinity to human NK-2 receptors was determined in each case by at least three measurements of the test substances in concentration series of 10^−6 to 10^−10 mol/l. If several measurements were performed, the average thereof was listed each time.
A general note: Displacement assays read how much labelled ligand stays bound in the presence of the test substance.

As a reminder, the IC50 is the concentration at which inhibition is half-maximal. Lower therefore signals higher potency. Compound `CN(CC(CCN1CCN(C(c2ccco2)[C@H](O)[C@@H](O)[C@H](O)CO)CC1)c1ccc(Cl)c(Cl)c1)C(=O)c1ccccc1` (mixture of isomers) [Example 13] had an IC50 in assay [1] of 0.398 nM. Moreover, in assay [2], the Ki was no more than 10 nM.
Take `CN(C[C@@H](CCN1CCN(C(c2ccsc2)[C@H](O)[C@@H](O)[C@H](O)CO)CC1)c1ccc(Cl)c(Cl)c1)C(=O)c1ccccc1` (stereo partly drawn) [Example 1, N-((2S)-2-(3,4-dichlorophenyl)-4-{4-[(2S,3R,4R)-2,3,4,5-tetrahydroxy-1-(3-thienyl)pentyl]-1-piperazinyl}butyl)-N-methylbenzamide]: the concentration for half-maximal inhibition (IC50) in assay [1] is 0.158 nM. In assay [2], the Ki was no more than 1 nM.
The matching figures for `CC(=O)OC[C@@H](OC(C)=O)[C@H](OC(C)=O)[C@@H](OC(C)=O)C(c1ccsc1)N1CCN(CC[C@H](CN(C)C(=O)c2ccccc2)c2ccc(Cl)c(Cl)c2)CC1` (stereo partly drawn) [Example 14]: 2 nM and no more than 10 nM.
